# Source: patent US11447487B2, “Spiroheptanyl hydantoins as rock inhibitors” (BRISTOL-MYERS SQUIBB COMPANY, priority 2017, dated 2022)
# pIC50: −log10 of the molar value.
# How the values were obtained:
# [1] = system: IL-1 beta-induced coronary stenosis; settings: long term treatment; cited from earlier work
# [2] = system: spontaneously hypertensive rat, renal hypertensive rat and deoxycortisone acetate salt hypertensive rat models; settings: cited from earlier work
# [3] = system: neointimal formation in rats; settings: cited from earlier work
# Dahl salt-sensitive rats = settings: rat, in vivo; cited from earlier work
# ROCK2 = ROCK2 (Homo sapiens (Human), UniProt O75116); assay: ROCK assay (Caliper LABCHIP peptide phosphorylation); type: biochemical; settings: 5 μM ATP, 1.5 μM peptide substrate
# How it was run: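 Human ROCK2 reaction with 5 μM ATP and 1.5 μM FITC-labelled peptide substrate in 20 mM HEPES pH 7.5, 20 mM MgCl2, 4 mM DTT, DMSO <2%; stopped with EDTA. Phosphorylated and unphosphorylated peptide separated by microfluidic mobility shift; IC50 from dose-response curve fit.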
# ROCK2, sequence (O75116 whole entry, species assumed): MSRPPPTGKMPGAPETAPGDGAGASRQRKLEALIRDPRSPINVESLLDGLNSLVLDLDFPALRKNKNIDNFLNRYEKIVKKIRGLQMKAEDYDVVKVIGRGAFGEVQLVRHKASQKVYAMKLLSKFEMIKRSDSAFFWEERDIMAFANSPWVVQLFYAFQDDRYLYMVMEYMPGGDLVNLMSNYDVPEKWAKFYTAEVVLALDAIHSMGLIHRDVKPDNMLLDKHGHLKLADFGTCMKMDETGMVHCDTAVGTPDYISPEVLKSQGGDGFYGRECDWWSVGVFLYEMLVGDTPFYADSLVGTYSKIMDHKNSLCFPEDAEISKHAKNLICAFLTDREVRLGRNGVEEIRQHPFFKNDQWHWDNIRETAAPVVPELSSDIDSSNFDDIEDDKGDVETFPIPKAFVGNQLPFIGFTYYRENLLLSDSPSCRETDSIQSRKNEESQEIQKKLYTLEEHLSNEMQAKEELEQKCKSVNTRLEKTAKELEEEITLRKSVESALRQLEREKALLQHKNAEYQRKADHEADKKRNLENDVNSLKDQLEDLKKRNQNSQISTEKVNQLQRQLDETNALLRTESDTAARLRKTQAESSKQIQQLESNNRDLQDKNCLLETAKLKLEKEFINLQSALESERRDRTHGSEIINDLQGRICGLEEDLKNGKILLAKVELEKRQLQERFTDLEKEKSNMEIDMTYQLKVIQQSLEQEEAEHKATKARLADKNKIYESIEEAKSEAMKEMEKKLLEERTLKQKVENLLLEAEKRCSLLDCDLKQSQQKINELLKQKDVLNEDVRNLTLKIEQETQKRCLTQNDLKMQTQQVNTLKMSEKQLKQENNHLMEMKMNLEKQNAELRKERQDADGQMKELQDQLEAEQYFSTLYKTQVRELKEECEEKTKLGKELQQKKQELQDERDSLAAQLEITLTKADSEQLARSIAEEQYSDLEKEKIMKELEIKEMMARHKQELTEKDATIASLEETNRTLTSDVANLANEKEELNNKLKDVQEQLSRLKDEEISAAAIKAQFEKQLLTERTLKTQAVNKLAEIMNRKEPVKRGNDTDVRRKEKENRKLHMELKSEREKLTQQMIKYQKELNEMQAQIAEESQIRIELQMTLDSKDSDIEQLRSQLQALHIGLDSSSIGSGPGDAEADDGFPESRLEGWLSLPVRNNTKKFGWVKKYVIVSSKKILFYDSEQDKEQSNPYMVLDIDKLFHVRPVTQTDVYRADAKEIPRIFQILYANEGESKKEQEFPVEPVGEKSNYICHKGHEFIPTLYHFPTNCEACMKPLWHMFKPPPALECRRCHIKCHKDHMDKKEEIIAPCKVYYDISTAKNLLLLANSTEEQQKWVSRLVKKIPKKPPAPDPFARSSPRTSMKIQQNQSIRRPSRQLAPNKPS
SMILES,pIC50 (ROCK2),further results
O=S(=O)(c1cccc2cnccc12)N1CCCNCC1 [fasudil],,coronary constrictive remodeling [1]: promote a regression of coronary constrictive remodeling; coronary stenosis [1]: progressively reduce coronary stenosis
"C[C@@H](N)[C@H]1CC[C@H](C(=O)Nc2ccncc2)CC1 [Example Y-27632, Y-27632]",,"blood pressure in control rats ([2]; control rats): only a minor effect on blood pressure; blood pressure ([2]; three rat models of hypertension): significantly decrease blood pressure; neointimal formation [3]: inhibited neointimal formation; ventricular hypertrophy, fibrosis and function (Dahl salt-sensitive rats): improve ventricular hypertrophy, fibrosis and function"
"CC(C)CCN1C(=O)C(=O)N([C@H]2C[C@@]3(C[C@H](Oc4ncccc4C(N)=O)C3)C2)C1=O (stereo partly shown) [Example 65, 2-{[(αR)-6-[3-(3-methylbutyl)-2,4,5-trioxo-imidazolidin-1-yl]spiro[3.3]-heptan-2-yl]oxy}-pyridine-3-carbox-amide]",6.01,
"NC(=O)c1cccnc1O[C@H]1C[C@]2(C1)C[C@H](N1C(=O)NC(C[C@@H]3C[C@H]4CC[C@@H](C3)N4C(=O)OCc3ccccc3)C1=O)C2 (stereo partly shown) [Example 99, benzyl 3-((1-((αR)-6-((3-carbamoylpyridin-2-yl)oxy)spiro[3.3]heptan-2-yl)-2,5-dioxoimidazolidin-4-yl)methyl)-8-azabicyclo[3.2.1] octane-8-carboxylate]",6.18,
"CC[C@H](C)[C@@H]1NC(=O)N([C@H]2C[C@@]3(C[C@H](Oc4ncccc4C(N)=O)C3)C2)C1=O (stereo partly drawn) [Example 27, 2-{[(αR)-6-[(4S)-4-[(2S)-butan-2-yl]-2,5-dioxoimidazol-idin-1-yl]spiro-[3.3]heptan-2-yl]-oxy}pyridine-3-carboxamide]",7.35,
"CC(C)(C)C1NC(=O)N([C@H]2C[C@@]3(C[C@H](Oc4ncccc4C(N)=O)C3)C2)C1=O (stereo partly shown) [Example 7, 2-{[(αR)-6-(4-tert-butyl-2,5-dioxo-imidazolidin-1-yl)spiro[3.3]-heptan-2-yl]oxy}-pyridine-3-carbox-amide]",6.89,
"CC(C)(C)C[C@@H]1NC(=O)N([C@H]2C[C@@]3(C[C@H](Oc4ncccc4C(N)=O)C3)C2)C1=O (stereo partly drawn) [Example 25, 2-{[(αR)-6-[(4S)-4-(2,2-dimethyl-propyl)-2,5-dioxo-imidazolidin-1-yl]-spiro[3.3]heptan-2-yl]oxy}pyridine-3-carboxamide]",8.00,
"NC(=O)c1cccnc1O[C@H]1C[C@]2(C1)C[C@H](N1C(=O)CN(c3ccc(C(F)(F)F)cc3)C1=O)C2 (stereo partly shown) [Example 87, 2-(((αR)-6-(2.5-dioxo-3-(4-(trifluoromethyl)phenyl)imidazolidin-1-yl)spiro[3.3]heptan-2-yl)oxy)nicotinamide]",8.30,
"CC(C)CN1CC(=O)N([C@H]2C[C@@]3(C[C@H](Oc4ncccc4C(N)=O)C3)C2)C1=O (stereo partly shown) [Example 13, 2-{[(αR)-6-[3-(2-methylpropyl)-2,5-dioxoimidazol-idin-1-yl]spiro-[3.3]heptan-2-yl]-oxy}pyridine-3-carboxamide]",6.29,
"Cn1cnc(CC2NC(=O)N([C@H]3C[C@@]4(C[C@H](Oc5ncccc5C(N)=O)C4)C3)C2=O)c1 (stereo partly shown) [Example 19, 2-{[(αR)-6-[2,5-dioxo-4-(1-methyl-4-imidazylmethyl)-imidazolidin-1-yl]spiro[3.3]heptan-2-yl]oxy}pyridine-3-carboxamide]",5.79,
"NC(=O)c1cccnc1O[C@H]1C[C@]2(C1)C[C@H](N1C(=O)NC(CCOC(F)(F)F)C1=O)C2 (single isomer, unassigned) [Example 57, 2-{[(αR)-6-{2,5-dioxo-4-[2-(tri-fluoromethoxy)-ethyl]imidazolidin-1-yl}spiro[3.3]-heptan-2-yl]oxy}-pyridine-3-carbox-amide]",6.59,
"CS(=O)(=O)c1cccc(N2CC(=O)N([C@H]3C[C@@]4(C[C@H](Oc5ncccc5C(N)=O)C4)C3)C2=O)c1 (stereo partly shown) [Example 89, 2-(((αR)-6-(3-(3-(methylsulfonyl)phenyl)-2,5-dioxoimidazolidin-1-yl)spiro[3.3]heptan-2-yl)oxy)nicotinamide]",7.89,
"CC[C@H](C)[C@H]1CC(=O)N([C@H]2C[C@@]3(C[C@H](Oc4ncccc4C(N)=O)C3)C2)C(=O)N1 (stereo partly drawn) [Example 75, 2-{[(αR)-6-[(4R)-4-[(2S)-butan-2-yl]-2,6-dioxo-1,3-diazinan-1-yl]-spiro[3.3]heptan-2-yl]oxy}pyridine-3-carboxamide]",6.86,
"NC(=O)c1cccnc1O[C@H]1C[C@]2(C1)C[C@H](N1C(=O)C3CCCN3C1=O)C2 (stereo partly shown) [Example 23, 2-{[(αR)-6-{1,3-dioxo-hexahydro-1H-pyrrolo[1,2-c]imidazolidin-2-yl}spiro[3.3]-heptan-2-yl]oxy}-pyridine-3-carbox-amide]",5.69,
"CC[C@@H]1NC(=O)N([C@H]2C[C@@]3(C[C@H](Oc4ncccc4C(N)=O)C3)C2)C1=O (stereo partly drawn) [Example 35, 2-{[(αR)-6-((4S)-4-ethyl-2,5-dioxo-imidazolidin-1-yl]-spiro[3.3]heptan-2-yl]oxy}pyridine-3-carboxamide]",5.78,
